Values of other authors as cited in patent publication US20260071096A1, “BONDED ABRASIVE ARTICLES AND METHODS OF MANUFACTURE” (3M INNOVATIVE PROPERTIES COMPANY, priority 2020, published 2026).

Conditions: species and route not given

In the case of `c1ccc2ccccc2c1` [Naphthalene, naphthalene], the “LD50 (mean lethal dose)” value is listed as 490 mg/kg.
